Experiments:
[1] = system: MDA-MB-231; assay: Cytotoxicity against FPPS-negative human MDA-MB-231 cells assessed as reduction in cell viability measured after 48 hrs by MTT assay; assay type: functional, cell-based; conditions: MDA-MB-231, 48 h
[2] = system: HCT-116; assay: Cytotoxicity against FPPS-positive human HCT116 cells assessed as reduction in cell viability measured after 48 hrs by MTT assay; conditions: HCT-116, 48 h
[3] = system: LoVo; assay: Cytotoxicity against FPPS-positive human Lovo cells assessed as reduction in cell viability measured after 48 hrs by MTT assay
[4] = biological target: T1, Farnesyl pyrophosphate synthase (Rattus norvegicus, UniProt P05369); assay: Binding affinity to rat FPPS expressed in Escherichia coli BL21 (DE3) by isothermal titration calorimetry
T1 sequence (P05369 whole entry): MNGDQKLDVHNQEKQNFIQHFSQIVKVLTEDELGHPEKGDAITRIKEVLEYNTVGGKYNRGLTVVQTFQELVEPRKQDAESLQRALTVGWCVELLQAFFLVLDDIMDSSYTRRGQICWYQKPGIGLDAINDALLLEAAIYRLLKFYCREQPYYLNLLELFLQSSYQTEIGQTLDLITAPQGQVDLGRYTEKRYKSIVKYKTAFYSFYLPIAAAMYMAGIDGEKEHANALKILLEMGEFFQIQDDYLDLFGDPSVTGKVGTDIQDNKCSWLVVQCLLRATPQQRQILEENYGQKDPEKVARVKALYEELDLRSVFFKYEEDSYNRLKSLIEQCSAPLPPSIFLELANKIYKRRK

[5] = biological target: T2, Farnesyl pyrophosphate synthase (Rattus norvegicus) (UniProt P05369); assay: Inhibition of rat FPPS expressed in Escherichia coli BL21 (DE3) using GPP and IPP as substrate at 10 uM incubated for 10 mins by microplate reader
T2 sequence (whole entry): T1 sequence (P05369 whole entry)

O=P(O)(O)C(O)(Cn1ccnc1)P(=O)(O)O [ZOLEDRONIC ACID]
IC50 [1]: > 100 µM | IC50 [2]: 61.6 µM | IC50 [3]: 34.9 µM

CCC(C)c1ccc(O[C@@H]2O[C@H](CO)[C@@H](O)[C@H](O)[C@H]2NC(C)=O)cc1 (stereo partly specified)
Kd [4]: 499 µM | inhibition [5]: 25.3%

O=C(CC1(O)C(=O)Nc2ccccc21)CC1(O)C(=O)Nc2ccccc21 (stereo unspecified)
Kd [4]: 181 µM | inhibition [5]: 13%

CC(C)Oc1ccc(CNC(=O)C2CCCN(S(=O)(=O)N3CCOCC3)C2)cc1 (stereo unspecified)
Kd [4]: 72 µM | inhibition [5]: 28.9%

O=Cc1ccc(O[C@@H]2O[C@H](CO)[C@@H](O)[C@H](O)[C@H]2O)cc1
Kd [4]: 328 µM | inhibition [5]: 29.3%

From ChEMBL document CHEMBL4715844, “Structure-based virtual screening and biological evaluation of novel non-bisphosphonate farnesyl pyrophosphate synthase inhibitors” (Eur J Med Chem, 2020)
